Results from article PMC9254496, “Crystal structure of mevalonate 3,5-bisphosphate decarboxylase reveals insight into the evolution of decarboxylases in the mevalonate metabolic pathways” (The Journal of Biological Chemistry, 2022).

Tests used:
[1] = molecular target: T1, PtoMBD (Picrophilus oshimae, UniProt Q6L1T9, D309T); assay: radio-TLC activity assay; assay type: biochemical; details: labelled compound; 1 μM GGPP, 5 mM MgCl2, sodium acetate pH 5.5, 60 °C
T1 construct: gene PTO0478

[2] = molecular target: T2, PtoMBD (Picrophilus oshimae, UniProt Q6L1T9, R218A/R220A); assay: radio-TLC activity assay; assay type: biochemical; details: labelled compound; 1 μM GGPP, 5 mM MgCl2, sodium acetate pH 5.5, 60 °C
T2 construct: gene PTO0478
T2 sequence (Q6L1T9 whole entry R218A/R220A): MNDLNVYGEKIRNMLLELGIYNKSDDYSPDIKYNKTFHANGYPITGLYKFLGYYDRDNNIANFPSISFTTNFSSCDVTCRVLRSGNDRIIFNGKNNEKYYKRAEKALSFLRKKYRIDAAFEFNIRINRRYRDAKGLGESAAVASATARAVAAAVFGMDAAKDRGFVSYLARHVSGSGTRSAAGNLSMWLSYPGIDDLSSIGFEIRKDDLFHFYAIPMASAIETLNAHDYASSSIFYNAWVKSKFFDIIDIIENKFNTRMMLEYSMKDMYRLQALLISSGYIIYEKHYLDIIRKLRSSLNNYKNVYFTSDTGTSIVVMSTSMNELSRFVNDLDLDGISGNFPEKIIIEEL

[3] = molecular target: T3, PtoMBD (Picrophilus oshimae, UniProt Q6L1T9, D309N); assay: radio-TLC activity assay; assay type: biochemical; details: labelled compound; 1 μM GGPP, 5 mM MgCl2, sodium acetate pH 5.5, 60 °C
T3 construct: gene PTO0478
T3 sequence (Q6L1T9 whole entry D309N): as the sequence (Q6L1T9 whole entry R218A/R220A) above, with A218R, A220R, D309N counted along it

[4] = molecular target: T4, PtoMBD (Picrophilus oshimae, UniProt Q6L1T9); assay: X-ray crystal structure, […] Å; assay type: binding; details: endogenous E. coli ligand, identity assumed from density (oleic acid fitted), low occupancy, subunit A only; cavity overlapping ATP site of DMD
T4 construct: gene PTO0478
T4 sequence (Q6L1T9 1-349): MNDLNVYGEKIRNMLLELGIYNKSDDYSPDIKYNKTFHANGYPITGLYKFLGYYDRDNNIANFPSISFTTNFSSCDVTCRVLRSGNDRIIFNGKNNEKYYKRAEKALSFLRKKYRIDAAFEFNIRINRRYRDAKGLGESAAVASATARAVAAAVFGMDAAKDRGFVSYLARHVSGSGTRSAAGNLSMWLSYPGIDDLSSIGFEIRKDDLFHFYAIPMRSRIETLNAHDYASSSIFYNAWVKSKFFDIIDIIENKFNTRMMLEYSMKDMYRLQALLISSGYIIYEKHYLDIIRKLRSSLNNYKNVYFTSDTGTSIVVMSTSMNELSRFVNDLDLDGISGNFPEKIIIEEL

[5] = molecular target: the molecule itself; assay: SEC; HiLoad 16/600 Superdex 200 prep grade, 20 mM sodium phosphate pH 7.4, 500 mM NaCl, 0.6 ml/min; calibrated with gel filtration markers

T1 sequence (Q6L1T9 whole entry D309T): as the sequence (Q6L1T9 whole entry R218A/R220A) above, with A218R, A220R, D309T counted along it

With `C[C@@](CCOP(=O)(O)O)(CC(=O)O)OP(=O)(O)O` [MVA3,5BP] as the molecule, how does the MBD activity [1] read?
Its MBD activity is “mutants D309T and D309N leads to the complete loss of MBD activity”.

And the MBD activity [2]?
Its MBD activity is “the R218A/R220A double mutant was as active as the WT”.

What about the MBD activity [3] of the same molecule?
The MBD activity was “mutants D309T and D309N leads to the complete loss of MBD activity”.

For `CCCCCCCC/C=C\CCCCCCCC(=O)O` [OLA], which “X-ray crystal structure, 2.2 Å” value [4] is on record?
Its value is “Oleic acid (OLA) fitted well in the electron density”.

B1: Picrophilus torridus mevalonate 3,5-bisphosphate decarboxylase (enzyme)
chain: MNDLNVYGEKIRNMLLELGIYNKSDDYSPDIKYNKTFHANGYPITGLYKFLGYYDRDNNIANFPSISFTTNFSSCDVTCRVLRSGNDRIIFNGKNNEKYYKRAEKALSFLRKKYRIDAAFEFNIRINRRYRDAKGLGESAAVASATARAVAAAVFGMDAAKDRGFVSYLARHVSGSGTRSAAGNLSMWLSYPGIDDLSSIGFEIRKDDLFHFYAIPMRSRIETLNAHDYASSSIFYNAWVKSKFFDIIDIIENKFNTRMMLEYSMKDMYRLQALLISSGYIIYEKHYLDIIRKLRSSLNNYKNVYFTSDTGTSIVVMSTSMNELSRFVNDLDLDGISGNFPEKIIIEEL
notes: Mevalonate 3,5-bisphosphate decarboxylase of Picrophilus torridus, gene pto0478; calculated mass of the tagged protein 42,186 Da; also called PtoMBD; MBD; source: E. coli BL21(DE3), pET28a(+), purified (heat treatment, Ni-NTA, HP-Q for crystallization; heat treatment and Ni-NTA only for size-exclusion chromatography); not shown: polyhistidine, N-terminal, kept
How did the “stoichiometry N” value [5] turn out when B1 was run?
Its value is 2.
